Laboratory results from patent publication US20250101011A1, “PEPTIDYL NITRILE COMPOUND AND USE THEREOF” (SHANGHAI YIDIAN PHARMACEUTICAL TECHNOLOGY DEVELOPMENT CO., …, priority 2022, published 2025).

Biological target: DPP1 (Homo sapiens (Human), UniProt P53634)
Experiment: DPP1 activity inhibition test on U937 cells
Assay type: cell-based
Details: substrate h-Gly-phe-AFC; for inhibition at 0.005 µM: U-937, 5 nM compound; for inhibition at 0.05 µM: U-937, 50 nM compound; for IC50: intracellular enzyme activity
Method: After incubation at 37° C. for 1 h, add h-Gly-phe-AFC (10 μL) to each well and start reaction.

Chain of DPP1 (P53634 25-463): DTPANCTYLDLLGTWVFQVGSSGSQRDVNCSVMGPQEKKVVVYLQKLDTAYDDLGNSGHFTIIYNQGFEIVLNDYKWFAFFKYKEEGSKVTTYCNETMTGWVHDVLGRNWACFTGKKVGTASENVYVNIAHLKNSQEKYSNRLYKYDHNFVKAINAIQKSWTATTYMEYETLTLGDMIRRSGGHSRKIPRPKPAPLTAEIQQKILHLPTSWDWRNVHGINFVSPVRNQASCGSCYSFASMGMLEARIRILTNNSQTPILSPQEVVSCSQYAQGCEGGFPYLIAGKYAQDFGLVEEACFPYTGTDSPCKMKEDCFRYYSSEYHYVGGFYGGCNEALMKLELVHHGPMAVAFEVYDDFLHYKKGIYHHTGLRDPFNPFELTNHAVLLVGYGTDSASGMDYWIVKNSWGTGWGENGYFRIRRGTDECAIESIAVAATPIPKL

SMILES	inhibition at 0.005 µM	inhibition at 0.05 µM	IC50
COCC1OC(=O)c2ccc(-c3ccc(C[C@@H](C#N)NC(=O)[C@@H]4CNCCCO4)c(F)c3)cc21 (stereo partly drawn) [Compound D77]	< 30%	75 to 100%	–
N#C[C@H](Cc1ccc(-c2cc3c(cc2F)C(=O)OC3)cc1F)NC(=O)[C@@H]1CNCCCO1 [Compound D79]	< 30%	< 30%	–
CS(=O)(=O)Cn1c(=O)oc2ccc(-c3ccc(C[C@@H](C#N)NC(=O)[C@@H]4CNCCCO4)c(F)c3)cc21 [Compound D80]	< 30%	< 30%	–
N#C[C@H](Cc1ccc(-c2ccc3c(c2)N2CC(=O)N=C2O3)cc1F)NC(=O)[C@@H]1CNCCCO1 [Compound D81]	< 30%	30 to 75%	–
N#C[C@H](Cc1ccc(-c2ccc3oc(=O)n(C4CCN(C5COC5)CC4)c3c2)cc1F)NC(=O)[C@@H]1CNCCCO1 [Compound D82]	< 30%	< 30%	–
CN1CCC(n2c(=O)oc3ccc(-c4ccc(C[C@@H](C#N)NC(=O)[C@@H]5CNCCCO5)c(F)c4)cc32)CC1 [Compound D83]	< 30%	< 30%	–
CN1CCC2(C1)OCc1ccc(-c3ccc(C[C@@H](C#N)NC(=O)[C@@H]4CNCCCO4)c(F)c3)cc12 (stereo partly drawn) [Compound D86]	< 30%	75 to 100%	–
N#C[C@H](Cc1ccc(-c2ccc3c(c2)C2(CCN(C4COC4)C2)OC3)cc1F)NC(=O)[C@@H]1CNCCCO1 (stereo partly drawn) [Compound D87]	< 30%	75 to 100%	12.8 nM
CN1CCC2(C1)OC(=O)c1ccc(-c3ccc(C[C@@H](C#N)NC(=O)[C@@H]4CNCCCO4)c(F)c3)cc12 (stereo partly drawn) [Compound D88]	< 30%	75 to 100%	–
N#C[C@H](Cc1ccc(-c2ccc3c(c2)C2(CCN(C4COC4)C2)OC3=O)cc1F)NC(=O)[C@@H]1CNCCCO1 (stereo partly drawn) [Compound D89]	< 30%	< 30%	–
CN1CCC2(C=Cc3ccc(-c4ccc(C[C@@H](C#N)NC(=O)[C@@H]5CNCCCO5)c(F)c4)cc32)CC1 [Compound D90]	< 30%	75 to 100%	–
CN1CCC2(C=Cc3cc(-c4ccc(C[C@@H](C#N)NC(=O)[C@@H]5CNCCCO5)c(F)c4)ccc32)CC1 [Compound D91]	30 to 75%	75 to 100%	18 nM
N#C[C@H](Cc1ccc(-c2ccc3c(c2)C=CC32CCN(C3COC3)CC2)cc1F)NC(=O)[C@@H]1CNCCCO1 [Compound D93]	30 to 75%	75 to 100%	15.8 nM
N#C[C@H](Cc1ccc(-c2ccc3oc(=O)n(CC4COC4)c3c2)cc1F)NC(=O)[C@@H]1CNCCCO1 [Compound D94]	< 30%	< 30%	–
N#C[C@H](Cc1ccc(-c2ccc3oc(=O)n(CC4CCO4)c3c2)cc1F)NC(=O)[C@@H]1CNCCCO1 (stereo partly drawn) [Compound D95]	< 30%	75 to 100%	17 nM
CN1CC(Cn2c(=O)oc3ccc(-c4ccc(C[C@@H](C#N)NC(=O)[C@@H]5CNCCCO5)c(F)c4)cc32)C1 [Compound D96]	–	–	367 nM
CN1CCC1Cn1c(=O)oc2ccc(-c3ccc(C[C@@H](C#N)NC(=O)[C@@H]4CNCCCO4)c(F)c3)cc21 (stereo partly drawn) [Compound D97]	–	–	109 nM
CN1CCC2(CC1)OC(=O)c1ccc(-c3ccc(C[C@@H](C#N)NC(=O)[C@@H]4CNCCCO4)c(F)c3)cc12 [Compound D104]	< 30%	< 30%	–
CN1CCC2(CC1)OCc1ccc(-c3ccc(C[C@@H](C#N)NC(=O)[C@@H]4CNCCCO4)c(F)c3)cc12 [Compound D105]	< 30%	< 30%	–
CN1CCC2(CC1)COc1ccc(-c3ccc(C[C@@H](C#N)NC(=O)[C@@H]4CNCCCO4)c(F)c3)cc12 [Compound D108]	< 30%	75 to 100%	–

Next, values leading:

inhibition at 0.005 µM	inhibition at 0.05 µM	IC50	SMILES
< 30%	< 30%	–	Cn1c(=O)oc2ccc(-c3ccc(C[C@@H](C#N)NC(=O)[C@@H]4CNCC5(COC5)CO4)c(F)c3)cc21 [Compound D98]
< 30%	30 to 75%	–	N#C[C@H](Cc1ccc(-c2ccc3oc(=O)n(C4COC4)c3c2)cc1F)NC(=O)[C@@H]1CNCCCO1 [Compound D99]
< 30%	30 to 75%	–	CN1CCC(n2c(=O)oc3ccc(-c4ccc(C[C@@H](C#N)NC(=O)[C@@H]5CNCCCO5)c(F)c4)cc32)C(F)(F)C1 (stereo partly drawn) [Compound D100]
< 30%	75 to 100%	13.1 nM	CN1CC2(C1)OC(=O)c1ccc(-c3ccc(C[C@@H](C#N)NC(=O)[C@@H]4CNCCCO4)c(F)c3)cc12 [Compound D102]
30 to 75%	75 to 100%	12.2 nM	CN1CC2(C1)OCc1ccc(-c3ccc(C[C@@H](C#N)NC(=O)[C@@H]4CNCCCO4)c(F)c3)cc12 [Compound D103]
30 to 75%	75 to 100%	5.3 nM	C[C@H]1CNC[C@@H](C(=O)N[C@H](C#N)Cc2ccc(-c3ccc4oc(=O)n(C)c4c3)cc2F)OC1 [Compound D109]
–	–	4.3 nM	C[C@@H]1CNC[C@@H](C(=O)N[C@H](C#N)Cc2ccc(-c3ccc4oc(=O)n(C)c4c3)cc2F)OC1 [Compound D110]
< 30%	75 to 100%	32.9 nM	N#C[C@H](Cc1ccc(-c2ccc3c(n2)CCC3=O)cc1F)NC(=O)[C@@H]1CNCCCO1 [Compound D111]
< 30%	30 to 75%	–	N#C[C@H](Cc1ccc(-c2cc3c(cn2)C(=O)CC3)cc1F)NC(=O)[C@@H]1CNCCCO1 [Compound D112]
< 30%	< 30%	–	N#C[C@H](Cc1ccc(-c2cnc3c(c2)CCC3=O)cc1F)NC(=O)[C@@H]1CNCCCO1 [Compound D113]
–	–	867 nM	Cn1ccc(=O)c2ccc(-c3ccc(C[C@@H](C#N)NC(=O)[C@@H]4CNCCCO4)c(F)c3)cc21 [Compound D114]
–	–	29.4 nM	CN1CC2(Cc3cc(-c4ccc(C[C@@H](C#N)NC(=O)[C@@H]5CNCCCO5)c(F)c4)ccc3C2=O)C1 [Compound D115]
< 30%	30 to 75%	–	N#C[C@H](Cc1ccc(-c2ccc3c(c2)CC2(CC2)C3=O)cc1F)NC(=O)[C@@H]1CNCCCO1 [Compound D116]
30 to 75%	75 to 100%	6 nM	CC1(C)Cc2cc(-c3ccc(C[C@@H](C#N)NC(=O)[C@@H]4CNCCCO4)c(F)c3)ccc2C1=O [Compound D117]
–	–	6.1 nM	N#C[C@H](Cc1ccc(-c2ccc3c(c2)C2(COC2)OC3=O)cc1F)NC(=O)[C@@H]1CNCCCO1 [Compound D119]
–	–	4.7 nM	N#C[C@H](Cc1ccc(-c2ccc3c(c2)CCC3=O)[se]1)NC(=O)[C@@H]1CNCCCO1 [Compound D121]
–	–	17 nM	N#C[C@H](Cc1ccc(-c2ccc3c(c2)C2CC2C3=O)cc1F)NC(=O)[C@@H]1CNCCCO1 (stereo partly drawn) [Compound D122]
